Measured values as given in patent US7265220B2, “Amino acid derivatives, method for production thereof and pharmaceutical compositions comprising said derivative” (Les Laboratories Servier, priority 2002, dated 2007).
Where a name gives a salt, the structure may show the parent alone.

Key:
Assay type in all cases: biochemical
[1] = molecular target: T1, purified human activated protein C (Homo sapiens, UniProt P04070); experiment: Inhibition of purified human activated protein C, chromogenic substrate S2366; conditions: activated protein C 2 nM, inhibitor preincubated 20° C., 30 minutes, substrate pyroGlu-Pro-Arg-pNA 0.39 mM, read at 405 nm; read-out: IC50 with respect to activated protein C
T1 construct: purchased Diagnostica Stago
T1 sequence (P04070 212-461 limits assumed): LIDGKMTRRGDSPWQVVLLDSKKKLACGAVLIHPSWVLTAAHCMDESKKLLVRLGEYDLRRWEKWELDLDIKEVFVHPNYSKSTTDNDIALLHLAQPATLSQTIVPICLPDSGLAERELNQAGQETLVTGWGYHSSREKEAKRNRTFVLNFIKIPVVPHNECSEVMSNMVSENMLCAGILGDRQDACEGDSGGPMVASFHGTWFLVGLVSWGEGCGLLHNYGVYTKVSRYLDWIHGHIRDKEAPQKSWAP
T1 sequence (P04070 43-197 limits assumed): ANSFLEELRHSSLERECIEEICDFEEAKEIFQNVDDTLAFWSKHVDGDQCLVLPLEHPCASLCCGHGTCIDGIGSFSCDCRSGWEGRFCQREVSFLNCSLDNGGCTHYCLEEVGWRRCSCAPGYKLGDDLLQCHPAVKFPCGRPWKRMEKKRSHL
Method: (§1) The inhibitors, enzymes and substrates are diluted in the same buffer (0.01 mM phosphate buffer pH 7.4 containing 0.12M sodium chloride and 0.05% bovine serum albumin in the case of thrombin and 50 mM TRIS-HCl buffer pH 7.4 containing 0.12M sodium chloride, 3 mM calcium chloride and 0.05% bovine serum albumin in the case of activated protein C and plasmin) and then dispensed in a volume of 50 μl onto a polystyrene microplate.

purified human thrombin = purified human thrombin (Homo sapiens, UniProt P00734); experiment: Inhibition of purified human thrombin, fibrinogen substrate (selectivity); conditions: thrombin 0.7 nM, substrate human fibrinogen 6 μM, fibrin formed read at 405 nm; read-out: IC50 with respect to thrombin
Method: as §1

purified human plasmin = molecular target: T2, purified human plasmin (Homo sapiens, UniProt P00747); experiment: Inhibition of purified human plasmin, chromogenic substrate S2403 (selectivity); conditions: plasmin 2 nM, substrate <Glu-Phe-Lys-pNA 0.37 mM, read at 405 nm; read-out: IC50 with respect to plasmin
T2 construct: purified human plasmin (2 nM, Stago); purchased Stago
T2 sequence (P00747 581-810 limits assumed): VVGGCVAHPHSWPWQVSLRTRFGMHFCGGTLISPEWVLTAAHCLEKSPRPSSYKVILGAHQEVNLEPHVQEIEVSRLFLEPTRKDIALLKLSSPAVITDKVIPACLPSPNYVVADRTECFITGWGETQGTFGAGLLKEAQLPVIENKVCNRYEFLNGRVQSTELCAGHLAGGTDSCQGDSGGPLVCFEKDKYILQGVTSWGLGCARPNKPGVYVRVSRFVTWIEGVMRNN
T2 sequence (P00747 97-580 limits assumed): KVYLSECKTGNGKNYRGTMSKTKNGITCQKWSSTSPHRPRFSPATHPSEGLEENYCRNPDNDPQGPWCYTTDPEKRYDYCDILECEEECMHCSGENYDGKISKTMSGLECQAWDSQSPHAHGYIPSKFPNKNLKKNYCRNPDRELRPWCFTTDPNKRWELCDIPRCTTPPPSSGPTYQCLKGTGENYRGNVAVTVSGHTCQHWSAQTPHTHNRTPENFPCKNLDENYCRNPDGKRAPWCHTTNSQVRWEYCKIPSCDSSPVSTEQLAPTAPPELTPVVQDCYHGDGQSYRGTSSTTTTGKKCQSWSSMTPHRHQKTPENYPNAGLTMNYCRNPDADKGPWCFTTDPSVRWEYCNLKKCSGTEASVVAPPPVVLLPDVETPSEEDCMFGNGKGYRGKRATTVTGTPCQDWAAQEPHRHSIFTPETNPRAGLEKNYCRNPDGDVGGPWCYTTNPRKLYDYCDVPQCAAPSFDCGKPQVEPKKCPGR
Method: In order to assess in vitro the inhibitory activity of products of the invention on purified human activated protein C (Diagnostica Stago), the chromogenic substrate pyroGlu-Pro-Arg-pNA (0.39 mM, S2366, Chromogenix) was added to a given amount of activated protein C (2 nM) previously incubated with or without the inhibitor under test (20° C., 30 minutes).
In order to assess in vitro the selectivity with respect to thrombin and plasmin, the same protocol was applied to purified human thrombin (0.7 nM, Sigma) and to purified human plasmin (2 nM, Stago), using as substrates purified human fibrinogen (6 μM, Enzyme Research Laboratories) and the paracitroanilide peptide <Glu-Phe-Lys-pNA (0.37 mM, S2403, Chromogenix), respectively.
The inhibitors, enzymes and substrates are diluted in the same buffer ([…] phosphate buffer pH 7.4 containing 0.12M sodium chloride and 0.05% bovine serum albumin in the case of thrombin and 50 mM TRIS-HCl buffer pH 7.4 containing 0.12M sodium chloride, 3 mM calcium chloride and 0.05% bovine serum albumin in the case of activated protein C and plasmin) and then dispensed in a volume of 50 μl onto a polystyrene microplate.
The paranitroanilide liberated or the fibrin formed by the action of the serine protease is measured spectrophotometrically at 405 nm after reacting for from 10 to 30 minutes at 20° C.

IC50 [1]: 0.82 µM | IC50 (purified human thrombin): > 33 µM | IC50 (purified human plasmin): 1.1 µM
SMILES: N=C(N)c1ccc(CNC(=O)C2(NC(=O)[C@H](NCC(=O)O)C3CCCCC3)Cc3ccccc3C2)cc1 [Example 1, {[(1R)-2-({2-[({4-Amidinobenzyl}-amino)-carbonyl]-indan-2-yl}-amino)-1-cyclohexyl-2-oxoethyl]-amino}acetic acid hydrochloride]
